For 16 compounds, IC50 results are on record in patent US11339130B1 (Blade Therapeutics, Inc., priority 2016, dated 2022).

Read-outs that look alike come from different tables or passages of the source.

Common to all, as to format: biochemical
In one test the target is T1, Human Calpain 1/NS1 (Homo sapiens, UniProt P07384).
T1 sequence (P07384 1-714): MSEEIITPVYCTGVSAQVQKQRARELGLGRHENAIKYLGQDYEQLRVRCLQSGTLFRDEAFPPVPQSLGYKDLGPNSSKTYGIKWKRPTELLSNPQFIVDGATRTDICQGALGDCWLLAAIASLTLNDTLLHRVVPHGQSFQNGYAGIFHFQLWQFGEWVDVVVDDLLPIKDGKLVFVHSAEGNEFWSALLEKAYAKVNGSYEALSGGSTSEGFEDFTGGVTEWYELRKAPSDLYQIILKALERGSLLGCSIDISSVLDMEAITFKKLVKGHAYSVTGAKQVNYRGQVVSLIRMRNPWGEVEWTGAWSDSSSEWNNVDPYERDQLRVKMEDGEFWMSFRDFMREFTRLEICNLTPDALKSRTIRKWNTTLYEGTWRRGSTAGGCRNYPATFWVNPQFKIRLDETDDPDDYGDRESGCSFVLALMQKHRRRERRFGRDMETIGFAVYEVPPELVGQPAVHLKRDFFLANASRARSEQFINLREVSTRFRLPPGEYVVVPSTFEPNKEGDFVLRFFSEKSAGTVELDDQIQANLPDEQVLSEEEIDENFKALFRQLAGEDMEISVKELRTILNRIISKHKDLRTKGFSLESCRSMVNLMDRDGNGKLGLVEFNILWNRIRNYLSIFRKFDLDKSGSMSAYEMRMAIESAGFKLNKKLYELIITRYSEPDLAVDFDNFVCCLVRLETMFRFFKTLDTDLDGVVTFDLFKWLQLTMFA
T1 sequence (P04632 1-268 partner): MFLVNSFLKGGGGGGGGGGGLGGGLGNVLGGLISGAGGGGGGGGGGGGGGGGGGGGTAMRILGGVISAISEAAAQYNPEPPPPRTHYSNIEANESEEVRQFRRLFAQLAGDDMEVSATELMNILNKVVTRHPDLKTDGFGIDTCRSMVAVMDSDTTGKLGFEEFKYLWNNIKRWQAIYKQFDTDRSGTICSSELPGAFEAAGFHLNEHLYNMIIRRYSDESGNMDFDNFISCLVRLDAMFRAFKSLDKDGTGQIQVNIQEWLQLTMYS
Nature of the test: Calpain inhibition continuous fluorescence (FRET) assay, Human Calpain 1/NS1. To be noted: read-out: Human Calpain 1/NS1 IC50. The procedure, abridged: (§1)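 Buffer 50 mM Tris pH 7.5/100 mM NaCl/1 mM DTT; enzyme + cpd preinc 25C; start w/ FRET substrate + CaCl2; kinetic 490/520 nm, 10 min; slopes 1-5 min; 4-PL IC50.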

The next test has as its target T2, Human Calpain 2/NS1 (Homo sapiens, UniProt P17655).
T2 sequence (P17655 1-700): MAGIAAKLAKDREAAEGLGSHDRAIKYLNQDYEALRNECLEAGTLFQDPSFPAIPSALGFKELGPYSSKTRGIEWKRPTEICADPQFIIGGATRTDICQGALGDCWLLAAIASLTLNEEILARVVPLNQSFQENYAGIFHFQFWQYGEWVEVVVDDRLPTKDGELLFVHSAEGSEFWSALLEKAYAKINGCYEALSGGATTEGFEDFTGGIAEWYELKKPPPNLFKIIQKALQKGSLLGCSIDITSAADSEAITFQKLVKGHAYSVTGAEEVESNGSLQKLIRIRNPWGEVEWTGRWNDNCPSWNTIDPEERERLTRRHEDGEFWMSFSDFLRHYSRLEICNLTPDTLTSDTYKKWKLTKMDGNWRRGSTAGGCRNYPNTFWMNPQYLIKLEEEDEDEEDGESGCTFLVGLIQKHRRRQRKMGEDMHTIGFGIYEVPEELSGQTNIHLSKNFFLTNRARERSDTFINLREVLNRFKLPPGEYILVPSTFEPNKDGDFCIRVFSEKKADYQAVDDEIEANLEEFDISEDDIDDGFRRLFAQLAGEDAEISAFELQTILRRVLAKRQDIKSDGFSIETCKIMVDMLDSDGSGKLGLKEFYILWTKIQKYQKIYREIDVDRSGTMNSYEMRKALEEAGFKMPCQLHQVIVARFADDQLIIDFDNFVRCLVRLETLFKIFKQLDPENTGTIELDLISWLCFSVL
T2 sequence (P04632 1-268 partner): T1 sequence (P04632 1-268 partner)
Briefly: Calpain inhibition continuous fluorescence (FRET) assay, Human Calpain 2/NS1. To be noted: read-out: Human Calpain 2/NS1 IC50. In short, it runs like this:
as §1

For another test, the target named is T3, Human Calpain 9/NS1 (Homo sapiens, UniProt O14815).
T3 sequence (O14815 1-690): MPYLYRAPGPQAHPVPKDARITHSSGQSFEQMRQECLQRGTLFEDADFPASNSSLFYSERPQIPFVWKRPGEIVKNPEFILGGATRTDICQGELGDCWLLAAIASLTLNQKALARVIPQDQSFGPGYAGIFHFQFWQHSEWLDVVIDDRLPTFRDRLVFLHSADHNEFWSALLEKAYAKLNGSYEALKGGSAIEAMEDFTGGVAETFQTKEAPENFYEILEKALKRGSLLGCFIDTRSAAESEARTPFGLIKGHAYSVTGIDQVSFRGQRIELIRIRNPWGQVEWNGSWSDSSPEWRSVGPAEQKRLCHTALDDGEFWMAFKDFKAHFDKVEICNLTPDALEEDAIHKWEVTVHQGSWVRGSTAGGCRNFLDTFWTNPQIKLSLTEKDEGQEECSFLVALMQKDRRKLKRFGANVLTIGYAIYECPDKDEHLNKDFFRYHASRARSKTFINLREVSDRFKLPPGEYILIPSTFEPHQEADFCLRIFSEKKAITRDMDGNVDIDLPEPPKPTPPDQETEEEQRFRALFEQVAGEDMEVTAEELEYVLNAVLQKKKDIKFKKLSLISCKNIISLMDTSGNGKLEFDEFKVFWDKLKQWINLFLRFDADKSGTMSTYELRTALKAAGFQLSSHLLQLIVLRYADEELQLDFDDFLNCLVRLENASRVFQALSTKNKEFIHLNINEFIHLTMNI
T3 sequence (P04632 1-268 partner): T1 sequence (P04632 1-268 partner)
Nature of the test: Calpain inhibition continuous fluorescence (FRET) assay, Human Calpain 9/NS1. To be noted: read-out: Human Calpain 9/NS1 IC50. The procedure, abridged: as §1

In the case of `NC(=O)C(=O)[C@H](Cc1ccccc1)NC(=O)c1cncn1-c1cc(-c2ncco2)ccn1` [Compound 88, (S)—N-(4-amino-3,4-dioxo-1-phenylbutan-2-yl)-1-(4-(oxazol-2-yl)pyridin-2-yl)-1H-imidazole-5-carboxamide], the IC50 at Human Calpain 1/NS1 (Column A), on Human Calpain 2/NS1 (Column B) and on Human Calpain 9/NS1 (Column C) was less than 3 µM in each case.

Regarding `Cc1cc(C(=O)N[C@@H](Cc2ccccc2)C(=O)C(=O)NC2CC2)n(-c2ncccc2C)n1` [Compound 67, (S)—N-(4-(cyclopropylamino)-3,4-dioxo-1-phenylbutan-2-yl)-3-methyl-1-(3-methylpyridin-2-yl)-1H-pyrazole-5-carboxamide], the IC50 at Human Calpain 1/NS1 (Column A), at Human Calpain 2/NS1 (Column B) and at Human Calpain 9/NS1 (Column C) was greater than 10 µM throughout.

In the case of `NC(=O)C(=O)[C@H](Cc1ccccc1)NC(=O)c1scnc1-n1ncc2ccccc21` [Compound 40, (S)—N-(4-amino-3,4-dioxo-1-phenylbutan-2-yl)-4-(1H-indazol-1-yl)thiazole-5-carboxamide], the IC50 on Human Calpain 1/NS1 (Column A), at Human Calpain 2/NS1 (Column B) and on Human Calpain 9/NS1 (Column C) was less than 3 µM each time.

`Cc1cnc(C(=O)NC(Cc2ccccc2)C(=O)C(N)=O)n1-c1ccccc1` (stereo not drawn) [Compound 490, N-(4-amino-3,4-dioxo-1-phenylbutan-2-yl)-5-methyl-1-phenyl-1H-imidazole-2-carboxamide]: the IC50 is greater than 10 µM on Human Calpain 1/NS1, 3 to 10 µM on Human Calpain 2/NS1 and less than 3 µM at Human Calpain 9/NS1.

On to `NC(=O)C(=O)[C@H](Cc1ccccc1)NC(=O)c1conc1-c1ccccc1` [Compound 304, (S)—N-(4-amino-3,4-dioxo-1-phenylbutan-2-yl)-3-phenylisoxazole-4-carboxamide], for which the IC50 at Human Calpain 1/NS1 (Column A), on Human Calpain 2/NS1 (Column B) and at Human Calpain 9/NS1 (Column C) was less than 3 µM each time.

For `NC(=O)C(=O)C(Cc1ccccc1)NC(=O)c1conc1-c1ncccn1` (stereo not drawn) [Compound 324, N-(4-amino-3,4-dioxo-1-phenylbutan-2-yl)-3-(pyrimidin-2-yl)isoxazole-4-carboxamide], the IC50 at Human Calpain 1/NS1 was less than 3 µM; on Human Calpain 2/NS1 it was less than 3 µM; on Human Calpain 9/NS1 it was 3 to 10 µM.

As for `Cc1nc(-c2ccccc2)c(C(=O)NC(Cc2cc(Cl)cc(Cl)c2)C(=O)C(N)=O)o1` (stereo not drawn) [Compound 390, N-(4-amino-1-(3,5-dichlorophenyl)-3,4-dioxobutan-2-yl)-2-methyl-4-phenyloxazole-5-carboxamide], the IC50 on Human Calpain 1/NS1, at Human Calpain 2/NS1 and at Human Calpain 9/NS1 was less than 3 µM each time.

With `Cn1ncc(C(=O)N[C@@H](Cc2ccccc2)C(=O)C(N)=O)c1-c1ncccn1` [Compound 191, (S)—N-(4-amino-3,4-dioxo-1-phenylbutan-2-yl)-1-methyl-5-(pyrimidin-2-yl)-1H-pyrazole-4-carboxamide], the IC50 at Human Calpain 1/NS1 (Column A), on Human Calpain 2/NS1 (Column B) and at Human Calpain 9/NS1 (Column C) was less than 3 µM in each case.

With `NC(=O)C(=O)C(Cc1ccccc1)NC(=O)c1c(C(F)(F)F)cnn1-c1ncccn1` (stereo not drawn) [Compound 410, N-(4-amino-3,4-dioxo-1-phenylbutan-2-yl)-1-(pyrimidin-2-yl)-4-(trifluoromethyl)-1H-pyrazole-5-carboxamide], the IC50 at Human Calpain 1/NS1, at Human Calpain 2/NS1 and on Human Calpain 9/NS1 was 3 to 10 µM each time.

In the case of `Cc1noc(-c2ccccc2)c1C(=O)N[C@@H](Cc1ccccc1)C(=O)C(=O)NCc1ccc2c(c1)OCO2` [Compound 225, (S)—N-(4-((benzo[d][1,3]dioxol-5-ylmethyl)amino)-3,4-dioxo-1-phenylbutan-2-yl)-3-methyl-5-phenylisoxazole-4-carboxamide], the IC50 was less than 3 µM on Human Calpain 1/NS1 (Column A), greater than 10 µM on Human Calpain 2/NS1 (Column B) and greater than 10 µM on Human Calpain 9/NS1 (Column C).

As to `NC(=O)C(=O)[C@H](Cc1ccccc1)NC(=O)c1c(Cl)ncn1-c1ccccc1` [Compound 291, (S)—N-(4-amino-3,4-dioxo-1-phenylbutan-2-yl)-4-chloro-1-phenyl-1H-imidazole-5-carboxamide], the IC50 at Human Calpain 1/NS1 (Column A), at Human Calpain 2/NS1 (Column B) and at Human Calpain 9/NS1 (Column C) was less than 3 µM throughout.

Turning to `O=C(NC1CC1)C(=O)[C@H](Cc1ccccc1)NC(=O)c1scnc1-n1cc(-c2ccccc2)cn1` [Compound 87, (S)—N-(4-(cyclopropylamino)-3,4-dioxo-1-phenylbutan-2-yl)-4-(4-phenyl-1H-pyrazol-1-yl)thiazole-5-carboxamide], the IC50 on Human Calpain 1/NS1 (Column A) is greater than 10 µM; on Human Calpain 2/NS1 (Column B), less than 3 µM; on Human Calpain 9/NS1 (Column C) it was less than 3 µM.

Consider `Cc1cc(C(=O)NC(Cc2ccccc2)C(=O)C(N)=O)c(-c2nc3ccccc3[nH]2)s1` (stereo not drawn) [Compound 429, N-(4-amino-3,4-dioxo-1-phenylbutan-2-yl)-2-(1H-benzo[d]imidazol-2-yl)-5-methylthiophene-3-carboxamide], for which the IC50 at Human Calpain 1/NS1, at Human Calpain 2/NS1 and on Human Calpain 9/NS1 was less than 3 µM each time.

On to `Cc1cc(C(=O)N[C@@H](Cc2ccccc2)C(=O)C(=O)NC2CC2)n(-c2ncccn2)n1` [Compound 65, (S)—N-(4-(cyclopropylamino)-3,4-dioxo-1-phenylbutan-2-yl)-3-methyl-1-(pyrimidin-2-yl)-1H-pyrazole-5-carboxamide], for which the IC50 at Human Calpain 1/NS1 (Column A), at Human Calpain 2/NS1 (Column B) and at Human Calpain 9/NS1 (Column C) was greater than 10 µM each time.

Regarding `O=C[C@H](Cc1ccccc1)NC(=O)c1cccc2nc(-c3ccccc3)[nH]c12` [Compound 92, (S)—N-(1-oxo-3-phenylpropan-2-yl)-2-phenyl-1H-benzo[D]imidazole-7-carboxamide], the values for the IC50 at Human Calpain 1/NS1 (Column A), at Human Calpain 2/NS1 (Column B) and at Human Calpain 9/NS1 (Column C) were 3 to 10 µM, 3 to 10 µM and less than 3 µM, respectively.

For “N-(4-amino-3,4-dioxo-1-phenylbutan-2-yl)-3-(isoquinolin-3-yl)-1-methyl-1H-pyrazole-4-carboxamide [Compound 629]”, the IC50 on Human Calpain 1/NS1, at Human Calpain 2/NS1 and at Human Calpain 9/NS1 was less than 3 µM throughout.
